Experimental data published in BigSolDB 2.1.

O=[N+]([O-])c1cccc2cccc([N+](=O)[O-])c12
solubility (mole fraction)
Details	in acetone	in acetonitrile	in chloroform	in ethanol	in ethyl acetate	in isopropanol	in methanol	in n-butanol	in toluene
273.15 K	0.0103	0.00295	0.00311	0.000242	0.00414	8.97e-05	0.000293	0.000155	0.00119
275.65 K	0.0113	0.00331	0.0035	0.000267	0.00446	0.000103	0.000327	0.000178	0.00125
278.15 K	0.0119	0.0039	0.00382	0.000294	0.00471	0.000126	0.000356	0.00021	0.00138
280.65 K	0.013	0.00465	0.0042	0.000323	0.00522	0.000146	0.000398	0.000237	0.00157
283.15 K	0.014	0.00528	0.00473	0.000351	0.00551	0.000173	0.000429	0.000272	0.00171
285.65 K	0.0152	0.00597	0.00508	0.000385	0.00607	0.000198	0.000485	0.000314	0.00188
288.15 K	0.0163	0.00661	0.00561	0.000427	0.00659	0.000224	0.000536	0.000356	0.00205
291.15 K	0.0177	0.00761	0.00601	0.000484	0.0072	0.000265	0.000599	0.000411	0.00235
293.15 K	0.0189	0.00821	–	0.000529	0.00765	0.000296	0.000641	0.000449	0.00255
295.65 K	0.0205	0.00921	0.00732	0.000584	0.00822	0.000334	0.000696	0.000504	0.0028
298.15 K	0.0223	0.0102	0.00787	0.000646	–	0.000382	0.000758	–	0.00309
300.65 K	0.0243	0.0112	0.0084	0.00071	0.00947	0.00043	0.000821	0.000623	0.00344
303.15 K	0.0261	0.012	0.00923	0.000789	0.0102	0.000482	0.000891	0.00069	0.00382
305.65 K	0.028	0.013	0.00983	0.000878	0.011	0.000536	0.000971	0.000759	0.00427
308.15 K	0.0306	0.014	0.0107	0.000994	0.0119	0.000605	0.00106	0.000832	0.00468
